The results in this text go back to PMC8750417, “Intracellular Amplifiers of Reactive Oxygen Species Affecting Mitochondria as Radiosensitizers” (Cancers, 2021).

Series [1] in a line: Hydrolysis of prodrugs in aqueous neutral solution (HPLC-UV-MS). The format is physicochemical. To be noted: 1 to 1_BA. As to the method:
To identify the active form of prodrugs 2a–2d in aqueous neutral buffers, we investigated their stability in the water rich solvent mixture containing triethylammonium acetate buffer (pH 7.0, 1.5 mM) and CH3CN (7/3, v/v). We observed that even freshly prepared solutions of analytically pure samples of 2a–2d (peaks eluted at 10.2–10.7 min) contain hydrolyzed species corresponding to boronic acid derivatives 2a_BA–2d_BA (peaks eluted at 7.1–7.5 min, 7–14% of the area of all peaks) (Figure S43, SI). After 2 h incubation of these samples, the peaks of 2a_BA–2d_BA become major ones (79–87% of the area of all peaks, Figure S43, SI).
Figure S42. High resolution ESI-TOF mass spectrum of HCl salt of drug 4 (4*HCl): upper plot – experimental spectrum; bottom plot – theoretical spectrum.
Determination of crystal structure of prodrug 2a […]
Stock solutions of prodrugs (2a-2d, 3 mM) in DMSO were first prepared. […] After the probes (20 µL) of these solutions were incubated for 0 or 2 h at 37 °C, they were injected to HPLC coupled to UV-visible detector (detection of absorbance at 254 nm) and electrospray mass spectrometric detector (detection of positively charged ions in the m/z range of 300 - 1200) and the analytes were separate d by using gradients of CH3CN (containing formic acid, 0.1 %, v/v) in water (containing ammonium formate, 10 mM and formic acid, 0.1 %, v/v) from 15% to 95%. […]

Series [2] concerns human ovarian carcinoma, Burkitt’s lymphoma, pancreatic carcinoma and T-cell leukemia cells. The series is described as follows: Anticancer activity, summary over four cancer cell lines. In kind it is cell-based. To be noted: read-out: IC50 values, range over cell lines. As to the method: Determination of viability of cells in the presence of prodrugs and controls A2780 and BL-2 cells The medium was removed, and the cells were washed two times with DPBS, trypsinated, and resuspended in RPMI 1640 medium (A2780) supplemented with 5% FBS (for 24 h and 48 h assay) or 10% FBS (for 96 h assay) , 1% L-glutamine, and 1% penicillin/streptomycin.
A2780 cells: This suspension was spread in the wells of a 96 -well microtiter plate (25000 cells for A2780 per well per 100 μL) and left standing at 37 °C in the chamber filled with CO2 (5%) for overnight. […] Afterward, the intensity of the absorbance at 590 nm was measured.
MTT is converted in live cells to blue dye with the absorbance maximum λ max at 590 nm.
The absorbance at 690 nm was taken as a baseline value. The baseline corrected absorbance at 590 nm (A(590 nm) − A(690 nm)) was applied to calculate the relative number of viable cells. […]
AsPC1 cells The cells (20.000/well) were seeded in a 12-well plate and incubated for 24 h. […] Viable cells were determined based on the morphological parameters by using flow cytometry (Table S4). […]
Jurkat cells The cells were counted in MUSE Cell Analyzer using MUSE® Count &Viability Assay Kit (Merck-Millipore, Billerica, MA, USA) and adjusted to a density of 1.0 x 10^5/ml in RPMI 1640 medium (with 10% FCS and 1% glutamine). […]

Consider `CCOC(=O)CCCCCn1cc(CN(C(=O)OCc2ccc(B3OC(C)(C)C(C)(C)O3)cc2)[c-]2cccc2)nn1.[Fe+2].c1cc[cH-]c1` [compound 1], for which, in series [1], the “time of formation of the hydrolyzed form in aqueous neutral solution” value was less than 2 h. Consider `CC1(C)OB(c2ccc(COC(=O)N(Cc3cn(Cc4ccc(Cn5cc(Cc6ccccc6)nn5)cc4)nn3)[c-]3cccc3)cc2)OC1(C)C.[Fe+2].c1cc[cH-]c1` [2c], for which, in series [2], the IC50 lay in the range of 5 to 7.1 µM.

One may read the IC50 as the concentration needed to halve the response being measured.
